Reference: patent publication US20220315567A1 (priority 2016, published 2022)
Read-outs that look alike come from different tables or passages of the source.

What was measured:
human OPRM1 (μ, MOR) [1] = target: T1, human OPRM1 (μ, MOR) (Homo sapiens, UniProt P35372); assay: cell-based; conditions: for EC50: PathHunter human OPRM1 Arrestin CHO-K1 cell line, read-out: β-Arrestin EC50; for Emax: OPRM1, read-out: β-Arrestin Emax
T1 construct: host or cells: CHO-K1
Method in brief: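 β-Arrestin-2 recruitment was measured in PathHunter CHO-K1 cells expressing ED-tagged human OPRM1 and EA-fused arrestin. Agonist-driven recruitment restores β-galactosidase activity by enzyme fragment complementation, read by chemiluminescence.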

human OPRM1 (μ, MOR) [2] = target: T1, human OPRM1 (μ, MOR); assay: cell-based; conditions: for EC50: PathHunter human OPRM1 Arrestin CHO-K1 cell line, read-out: cAMP EC50; for Emax: OPRM1, read-out: cAMP Emax
Procedure: G-protein signaling was measured via second messenger cAMP modulation. Detection of cAMP modulation was accomplished in the PathHunter human OPRM1 (μ, MOR) Arrestin CHO-K1 cell line using the Dynamic2 cAMP Kit from Cisbio.

human OPRM1 (μ, MOR) [3] = target: T1, human OPRM1 (μ, MOR); type: cell-based; conditions: for ΔRA of compound: relative activity from EC50 and Emax of β-arrestin vs cAMP, lower RA = more G-protein biased
Method in brief: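 Activity measured in cell assays for G-protein signaling and for β-arrestin recruitment. A relative activity (RA) value was derived by comparing the two readouts, taking both EC50 and Emax into account.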

[4] = patients following bunionectomy; cited from earlier work
[5] = healthy volunteers; cited from earlier work

T1 sequence (P35372 whole entry): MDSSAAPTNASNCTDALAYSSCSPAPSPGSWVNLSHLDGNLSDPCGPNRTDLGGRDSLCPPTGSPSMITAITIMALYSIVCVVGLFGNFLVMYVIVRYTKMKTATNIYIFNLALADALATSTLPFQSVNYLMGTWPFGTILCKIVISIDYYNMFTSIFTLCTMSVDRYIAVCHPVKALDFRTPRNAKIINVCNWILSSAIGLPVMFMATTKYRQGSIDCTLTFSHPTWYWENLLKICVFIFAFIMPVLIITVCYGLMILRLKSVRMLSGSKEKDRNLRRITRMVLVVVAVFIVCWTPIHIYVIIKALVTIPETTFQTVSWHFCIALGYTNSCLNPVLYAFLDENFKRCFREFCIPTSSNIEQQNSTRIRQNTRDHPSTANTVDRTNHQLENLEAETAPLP

Row | SMILES | β-Arrestin Emax (human OPRM1 (μ, MOR) [1]) | EC50 (human OPRM1 (μ, MOR) [1]) | melting point | cAMP Emax (human OPRM1 (μ, MOR) [2]) | EC50 (human OPRM1 (μ, MOR) [2]) | Bias Factor (ΔRA of compound relative to ΔRA of DAMGO) × 10 (human OPRM1 (μ, MOR) [3]) | ΔRA of compound (human OPRM1 (μ, MOR) [3]) | Emax (human OPRM1 (μ, MOR) [1]) | Emax (human OPRM1 (μ, MOR) [2]) | level of analgesia [4] | on-target adverse effects (nausea, decrease in respiratory drive) [5]
1 | CN(C)[C@H](CCNC(=O)N[C@@H]1CCc2ccccc2C1)c1ccsc1 [Compound 72] | 39.1% | 2.61 µM | 147 to 149 °C | 111.9% | 0.197 µM | −0.99 | −1.58 | – | – | – | –
2 | CN(C)[C@@H](CCNC(=O)N[C@@H]1CCc2ccccc2C1)c1ccsc1 [Compound 73] | – | > 100 µM | 147 to 148 °C | – | 0.422 µM | <−14.83 | <−2.96 | < 1% | 13.6% | – | –
3 | COc1ccsc1CNCC[C@@]1(c2ccccn2)CCOC2(CCCC2)C1 [oliceridine, N-[(3-methoxythiophen-2-yl)methyl]-2-[(9R)-9-pyridin-2-yl-6-oxaspiro[4.5]decan-9-yl]ethanamine] | – | – | – | – | – | – | – | – | – | higher level of analgesia | decreased on-target adverse effects
4 | CN(C)C(CNC(=O)N1Cc2ccc(F)cc2C1)c1ccc(O)cc1 (stereo not shown) [Compound 21, N-(2-(Dimethylamino)-2-(4-hydroxyphenyl)ethyl)-5-fluoroisoindoline-2-carboxamide] | – | > 100 µM | 180 to 185 °C (dec.) | – | > 100 µM | – | – | < 1% | 4.5% | – | –
5 | CN(C)C(CNC(=O)N[C@@H]1CCc2ccccc2C1)c1ccsc1 (stereo partly shown) [Compound 66] | – | – | 164 to 166 °C | – | – | <−14.83 | <−2.96 | – | – | – | –
6 | CN(C)C(CNC(=O)N[C@H]1CCc2ccccc2C1)c1ccsc1 (stereo partly shown) [Compound 67] | 2.6% | > 100 µM | 165 to 167 °C | 50.9% | 0.013 µM | <−14.83 | <−2.96 | – | – | – | –
7 | CN(C)C(CNC(=O)N1CCCc2cc(O)ccc21)c1ccsc1 (stereo not shown) [Compound 53] | – | 3.79 µM | 163 °C (dec.) | – | 0.267 µM | −4.47 | −1.93 | 20.1% | 120% | – | –
8 | CN(C)C1(CNC(=O)N2Cc3ccccc3C2)CCCCC1 [Compound 54] | – | 4.42 µM | 225 to 227 °C | – | 0.396 µM | −3.04 | −1.78 | 20.8% | 113% | – | –
9 | CN(C)[C@H](CCNC(=O)N[C@@H]1CCc2ccccc2C1)c1ccsc1 [Compound 71] | 10.5% | 1.82 µM | 112 to 114 °C | 71.2% | 0.177 µM | −3.66 | −1.85 | – | – | – | –
10 | CN(C)C(C)(C)CNC(=O)N1Cc2ccc(F)cc2C1 [Compound 62] | – | > 100 µM | 200 to 202 °C | – | 21 µM | <−14.83 | <−2.96 | < 1% | 81.8% | – | –
11 | CN(C)C1(CNC(=O)N2Cc3ccc(F)cc3C2)CCOCC1 [Compound 61] | – | > 100 µM | 241 to 243 °C | – | 1.17 µM | <−14.83 | <−2.96 | 14.5% | 104% | – | –
12 | CN(C)C1(CNC(=O)N[C@H]2CCc3ccccc3C2)CCCC1 [Compound 65] | – | > 100 µM | 204 to 206 °C | – | > 100 µM | – | – | < 1% | < 10% | – | –
13 | CN(C(=O)OC(C)(C)C)C(CNC(=O)N1Cc2ccc(F)cc2C1)c1ccsc1 (stereo not shown) [Compound 34, tert-Butyl (2-(5-fluoroisoindoline-2-carboxamido)-1-(thiophen-3-yl)ethyl)(methyl)carbamate] | – | > 100 µM | 182 to 184 °C | – | > 100 µM | – | – | < 1% | 2.6% | – | –
14 | CN(C)C1(CNC(=O)N[C@@H]2CCc3ccccc3C2)CCCCC1 [Compound 55] | – | > 100 µM | 192 to 194 °C | – | 2.85 µM | <−14.83 | <−2.96 | < 1% | 36.6% | – | –
15 | CN(C)[C@@H](CCNC(=O)N[C@H]1CCc2ccccc2C1)c1ccsc1 [Compound 74] | – | > 100 µM | 144 to 146 °C | – | > 100 µM | – | – | < 1% | 11.2% | – | –
16 | CN(C)C1(CNC(=O)N[C@H]2CCc3ccccc3C2)CCCCC1 [Compound 56] | – | > 100 µM | 191 to 193 °C | – | 7.74 µM | <−14.83 | <−2.96 | < 1% | 43.3% | – | –
17 | CN(C)C(CNC(=O)N1Cc2cccc(C#N)c2C1)c1ccsc1 (stereo not shown) [Compound 44] | – | > 100 µM | 159 to 161 °C | – | 0.162 µM | <−14.83 | <−2.96 | 5.3% | 51.4% | – | –
18 | COc1ccc(C(CNC(=O)N2CCCc3cc(F)ccc32)N(C)C)cc1 (stereo not shown) [Compound 68a] | – | 14.6 µM | 145 to 146 °C | – | 0.167 µM | −8.36 | −2.32 | 39.9% | 94.6% | – | –
